{
  "source": "paper PMC9740789",
  "about": "“Investigation of In Vitro and In Vivo Metabolism of α-Amanitin in Rats Using Liquid Chromatography-Quadrupole Time-of-Flight Mass Spectrometric Method” (Molecules, 2022)",
  "assay": "in vivo",
  "format": "in vivo, rat",
  "experimental": "The above developed LC-qTOF-MS method was applied to obtain the PK parameters after IV and PO administration in rat. Most of the PK samples were within the qualified calibration curve, except the 2 min-time point samples in the IV group which were slightly above the upper limit of quantification (ULOQ). Since the calibration curve was linear in the range of quantification, the concentrations of these early time point IV samples have been calculated by extrapolation of the calibration curve which is also applicable for discovery study in pharmaceutical industries. The PK parameters were calculated with the non-compartmental analysis (NCA) using WinNonlin® version 8.1.0 (Certara, Princeton, NJ, USA) and the results are summarized in Table 6.\nAnimal Male SD rats (320 ± 10 g) were purchased from the Samtako Biokorea co. (Gyeonggi, Republic of Korea) and housed in a group of four units per cage and given standard rodent chow. The rats were fasted overnight with free access to water for 12 h before administration. The formulation was prepared by dissolving α-amanitin in normal saline (NS) and DMSO (4:1, v/v).\nThe rats with femoral artery and femoral vein cannulation were prepared for the IV administration, and the rats with single femoral artery cannulation were prepared for the PO administration. The cannulated SD rats were given 1 mg/kg of α-amanitin by either IV bolus or PO (n = 4, both). After administration of α-amanitin, blood sample was collected through a femoral artery cannula and transferred into a heparin-containing tube at each sampling time point (IV: 2, 5, 15, 30, 60, 120, 240, 480, and 1440 min after drug administration and PO: 5, 15, 30, 60, 120, 240, 480, and 1440 min after drug administration). Then plasma sample was obtained by centrifuging the blood sample at 13,000 rpm for 5 min. The obtained plasma samples were stored at –20 °C until analysis. After analysis, the PK parameter was calculated using WinNonlin®.",
  "key": {"[1]": {"conditions": "rat, in vivo, male SD rats, IV bolus 1 mg/kg, plasma, NCA, n = 4"}},
  "data": [
    {"smiles": "CC[C@H](C)[C@@H]1NC(=O)CNC(=O)[C@@H]2Cc3c([nH]c4cc(O)ccc34)[S@+]([O-])C[C@H](NC(=O)CNC1=O)C(=O)N[C@@H](CC(N)=O)C(=O)N1C[C@H](O)C[C@H]1C(=O)N[C@@H]([C@@H](C)[C@@H](O)CO)C(=O)N2", "note": "[α-amanitin]", "values": [
      {"measurement": "Plasma concentration after PO administration", "setting": "male SD rats, PO 1 mg/kg, all samples 5-1440 min, n = 4, calibration range 3.05–2220 ng/mL", "result": "below the LLOQ"},
      {"measurement": "In vivo clearance as % of hepatic blood flow", "setting": "rat, IV 1 mg/kg", "result": "~30", "unit": "%"},
      {"measurement": "Bioavailability (in words)", "setting": "rat, PO 1 mg/kg", "result": "very low bioavailability"},
      {"measurement": "AUC(0-t)", "setting": "[1]", "result": 1170, "unit": "ng·h/mL"},
      {"measurement": "clearance", "setting": "[1]", "result": "14 ± 1.3", "unit": "mL/min/kg"},
      {"measurement": "half-life", "setting": "[1]", "result": "22.3 ± 0.98", "unit": "min"},
      {"measurement": "Cmax", "setting": "rat, in vivo, male SD rats, IV bolus 1 mg/kg, plasma, NCA, n = 4, 2 min samples extrapolated above ULOQ", "result": "2290 ± 274", "unit": "ng/mL"},
      {"measurement": "Vd", "setting": "rat, in vivo, male SD rats, IV bolus 1 mg/kg, plasma, NCA, n = 4, read-out: Vss", "result": "0.409 ± 0.0183", "unit": "L/kg"}
    ]}
  ]
}
